{"source": "paper PMC9124818", "about": "(Pharmacology Research & Perspectives, 2022)", "key": {"[1]": {"test": "Pharmacokinetic input parameters of the mechanistic static model (population pharmacokinetics)", "settings": "for Portal inlet [I]h: calculated as (Imax + (Fa × Fg × ka × molar dose) / Qh) / Rb; for Cmax, unbound: calculated as Cmax, total (ng/mL)/MW * fu"}, "CYP3A4/5": {"tested_on": "CYP3A4/5", "test": "Direct CYP450 inhibition in human liver microsomes (midazolam 1'-hydroxylation; testosterone 6β-hydroxylation)", "settings": "for Basic model: R1,gut: R1,gut = 1 + (Igut/Ki,u); for Basic model: R1: R1 = 1 + (Imax,u/Ki,u)", "source_text": "A mixed‐gender pool of 200 individual human liver microsomal samples was used.\nThis LIMS utilizes the Levenberg-Marquardt algorithm to perform nonlinear regression fitting of the data to the following 4-parameter sigmoidal-logistic IC50 equation:\nAs percent of control values are utilized, the Min is set to 0 and the Max is set to 100 (or other values, as appropriate). […] Therefore, when an IC50 value falls outside the concentration range studied, the IC50 values are reported to be greater than the highest concentrations of test article evaluated."}, "OATP1B1": {"biological_target": "T1, OATP1B1 (Homo sapiens, UniProt Q9Y6L6)", "T1 construct": "host or cells: HEK293", "T1 sequence (Q9Y6L6 1-691)": "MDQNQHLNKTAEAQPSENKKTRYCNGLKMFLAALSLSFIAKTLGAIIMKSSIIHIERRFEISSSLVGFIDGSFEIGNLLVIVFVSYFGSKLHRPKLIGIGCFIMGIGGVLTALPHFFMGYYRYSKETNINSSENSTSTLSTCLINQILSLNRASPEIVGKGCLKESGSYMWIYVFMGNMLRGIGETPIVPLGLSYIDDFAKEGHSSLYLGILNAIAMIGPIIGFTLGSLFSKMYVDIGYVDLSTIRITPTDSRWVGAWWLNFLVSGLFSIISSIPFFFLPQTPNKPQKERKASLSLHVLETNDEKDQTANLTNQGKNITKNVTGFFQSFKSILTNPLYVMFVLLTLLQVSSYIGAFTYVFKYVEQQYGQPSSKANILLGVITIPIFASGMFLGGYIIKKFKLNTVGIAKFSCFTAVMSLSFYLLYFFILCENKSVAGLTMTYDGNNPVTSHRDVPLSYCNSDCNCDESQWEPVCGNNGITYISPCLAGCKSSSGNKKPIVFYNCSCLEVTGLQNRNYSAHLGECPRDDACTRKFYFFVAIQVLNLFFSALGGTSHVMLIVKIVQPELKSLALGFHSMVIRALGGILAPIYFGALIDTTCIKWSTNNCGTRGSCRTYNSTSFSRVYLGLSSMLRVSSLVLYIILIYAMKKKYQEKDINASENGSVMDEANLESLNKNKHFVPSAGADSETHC", "test": "Transporter inhibition, uptake of [3H]-estradiol-17β-glucuronide in HEK293 cells", "type": "in vitro ADME", "procedure": "(§1) The test compound (FFA or nFFA) or the positive control substrate ([…], respectively) was added to the donor chamber. […] Cells were then washed, lysed with scintillation cocktail, and analyzed for the probe substrate with a MicroBeta scintillation counter (PerkinElmer, Hopkinton, MA). Transcellular transporter assay conditions are described in Supplemental Table 1. Calculation of IC50 values was based on bidirectional permeability of probe substrate with and without the inhibitor in MDCKII cells expressing BCRP and in Caco‐2 cells expressing P‐gp, and transporter‐dependent uptake of probe substrate in HEK293 cells expressing all other transporters (Supplemental Table 1).\n(§2) The transporter-specific uptake of the probe substrate in cells was determined by subtracting the accumulation in the control cells from the accumulation in the transporter-expressing cells."}, "OATP1B3": {"biological_target": "T2, OATP1B3 (Homo sapiens, UniProt Q9NPD5)", "T2 construct": "host or cells: HEK293", "T2 sequence (Q9NPD5 1-702)": "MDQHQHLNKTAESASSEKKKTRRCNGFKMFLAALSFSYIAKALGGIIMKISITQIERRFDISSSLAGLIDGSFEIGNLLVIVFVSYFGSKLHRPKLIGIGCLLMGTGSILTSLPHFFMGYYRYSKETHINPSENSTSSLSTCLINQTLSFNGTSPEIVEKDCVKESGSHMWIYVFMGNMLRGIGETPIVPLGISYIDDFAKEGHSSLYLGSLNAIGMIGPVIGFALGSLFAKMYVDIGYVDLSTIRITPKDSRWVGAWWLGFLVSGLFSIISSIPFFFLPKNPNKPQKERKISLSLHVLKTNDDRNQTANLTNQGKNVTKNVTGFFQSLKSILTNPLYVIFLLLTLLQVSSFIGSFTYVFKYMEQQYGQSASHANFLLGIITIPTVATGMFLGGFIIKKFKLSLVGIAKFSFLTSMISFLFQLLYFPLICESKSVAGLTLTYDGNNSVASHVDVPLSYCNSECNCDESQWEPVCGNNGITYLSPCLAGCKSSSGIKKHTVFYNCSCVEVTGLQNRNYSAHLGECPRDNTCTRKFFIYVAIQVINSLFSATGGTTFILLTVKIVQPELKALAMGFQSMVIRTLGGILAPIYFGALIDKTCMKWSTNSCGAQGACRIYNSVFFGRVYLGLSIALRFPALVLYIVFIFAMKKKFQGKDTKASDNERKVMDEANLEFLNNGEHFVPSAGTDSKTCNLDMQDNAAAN", "test": "Transporter inhibition, uptake of [3H]-estradiol-17β-glucuronide in HEK293 cells", "type": "in vitro ADME", "procedure": "as §1, §2"}, "OAT1": {"biological_target": "T3, OAT1 (Homo sapiens, UniProt Q4U2R8)", "T3 construct": "host or cells: HEK293", "T3 sequence (Q4U2R8 1-563)": "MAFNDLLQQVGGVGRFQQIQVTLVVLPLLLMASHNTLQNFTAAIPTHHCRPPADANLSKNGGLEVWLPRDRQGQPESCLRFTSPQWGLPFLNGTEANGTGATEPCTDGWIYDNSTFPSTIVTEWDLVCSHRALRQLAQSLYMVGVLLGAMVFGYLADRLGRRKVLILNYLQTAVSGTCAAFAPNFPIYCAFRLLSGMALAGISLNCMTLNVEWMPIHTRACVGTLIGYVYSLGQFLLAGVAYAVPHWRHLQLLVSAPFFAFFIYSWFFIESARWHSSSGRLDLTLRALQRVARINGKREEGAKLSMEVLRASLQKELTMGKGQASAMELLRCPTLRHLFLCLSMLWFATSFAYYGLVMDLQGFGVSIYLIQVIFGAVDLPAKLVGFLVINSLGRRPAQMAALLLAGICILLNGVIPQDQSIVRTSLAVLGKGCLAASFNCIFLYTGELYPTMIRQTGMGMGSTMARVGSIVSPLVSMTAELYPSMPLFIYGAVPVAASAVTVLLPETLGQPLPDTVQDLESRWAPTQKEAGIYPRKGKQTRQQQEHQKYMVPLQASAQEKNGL", "test": "Transporter inhibition, uptake of [3H]-p-aminohippurate in HEK293 cells", "type": "in vitro ADME", "procedure": "as §1, §2"}, "[2]": {"settings": "HEK293, probe [3H]-estradiol-17β-glucuronide 50 nM, read-out: IC50"}}, "note": "Where two headings read alike, the source gives them in different places.", "data": [{"compound": "CCNC(C)Cc1cccc(C(F)(F)F)c1", "note": "(racemic) [FFA, (RS)‐ethyl(α‐methyl‐3‐trifluoromethylphenethyl)amine, reference compound]", "values": [{"measurement": "Portal inlet [I]h", "setting": "[1]", "value": 0.362, "unit": "µM"}, {"measurement": "Cmax, unbound", "setting": "[1]", "value": 162, "unit": "nM"}, {"measurement": "IC50", "setting": "CYP3A4/5; both, human, pooled human liver microsomes, pH 7.4, probe midazolam (1'-hydroxylation)", "value": "> 600", "unit": "µM"}, {"measurement": "IC50", "setting": "CYP3A4/5; both, human, pooled human liver microsomes, pH 7.4, probe testosterone (6β-hydroxylation)", "value": "> 600", "unit": "µM"}, {"measurement": "Basic model: Potential for clinical inhibition (R1)", "setting": "CYP3A4/5; substrate midazolam", "value": "No No ^b (Potential to inhibit if R1 ≥ 1.02)"}, {"measurement": "Basic model: Potential for clinical inhibition (R1,gut)", "setting": "CYP3A4/5; substrate midazolam", "value": "No No ^b (Potential to inhibit if R1,gut ≥ 11)"}, {"measurement": "Static mechanistic model: Potential for clinical inhibition", "setting": "CYP3A4/5; substrate midazolam", "value": "No (Potential to inhibit if AUCR ≥ 1.25)"}, {"measurement": "Basic model: R1,gut", "setting": "CYP3A4/5; substrate midazolam", "value": "NC R1,gut = 1.78"}, {"measurement": "Basic model: Potential for clinical inhibition (R1)", "setting": "CYP3A4/5; substrate testosterone", "value": "No No ^b (Potential to inhibit if R1 ≥ 1.02)"}, {"measurement": "Basic model: Potential for clinical inhibition (R1,gut)", "setting": "CYP3A4/5; substrate testosterone", "value": "No No ^b (Potential to inhibit if R1,gut ≥ 11)"}, {"measurement": "Static mechanistic model: Potential for clinical inhibition", "setting": "CYP3A4/5; substrate testosterone", "value": "No (Potential to inhibit if AUCR ≥ 1.25)"}, {"measurement": "Basic model: R1,gut", "setting": "CYP3A4/5; substrate testosterone", "value": 1.81}, {"measurement": "Basic model: R1", "setting": "CYP3A4/5; substrate testosterone", "value": 1.00}, {"measurement": "IC50", "setting": "OATP1B1", "value": "> 300", "unit": "µM"}, {"measurement": "IC50", "setting": "OATP1B3", "value": "> 300", "unit": "µM"}, {"measurement": "IC50", "setting": "OAT1", "value": "> 30", "unit": "µM"}]}, {"compound": "CC(N)Cc1cccc(C(F)(F)F)c1.Cl", "note": "(stereo not shown) [nFFA, [1‐(3‐trifluoromethyl)phenyl]propan‐2‐amine hydrochloride]", "values": [{"measurement": "Portal inlet [I]h", "setting": "[1]", "value": 0.094, "unit": "µM"}, {"measurement": "Cmax, unbound", "setting": "[1]", "value": 94, "unit": "nM"}, {"measurement": "IC50", "setting": "CYP3A4/5; direct inhibition, human liver microsomes, substrate midazolam", "value": "> 100", "unit": "µM"}, {"measurement": "IC50", "setting": "CYP3A4/5; direct inhibition, human liver microsomes, substrate testosterone", "value": "> 100", "unit": "µM"}, {"measurement": "Basic model: Potential for clinical inhibition (R1)", "setting": "CYP3A4/5; substrate midazolam", "value": "No (Potential to inhibit if R1 ≥ 1.02)"}, {"measurement": "Static mechanistic model: Potential for clinical inhibition", "setting": "CYP3A4/5; substrate midazolam", "value": "No (Potential to inhibit if AUCR ≥ 1.25)"}, {"measurement": "Basic model: Potential for clinical inhibition (R1)", "setting": "CYP3A4/5; substrate testosterone", "value": "No (Potential to inhibit if R1 ≥ 1.02)"}, {"measurement": "Static mechanistic model: Potential for clinical inhibition", "setting": "CYP3A4/5; substrate testosterone", "value": "No (Potential to inhibit if AUCR ≥ 1.25)"}, {"measurement": "Basic model: R1", "setting": "CYP3A4/5; substrate testosterone", "value": 1.00}, {"measurement": "IC50", "setting": "OATP1B1; [2]", "value": "> 50", "unit": "µM"}, {"measurement": "IC50", "setting": "OATP1B3; [2]", "value": "> 50", "unit": "µM"}, {"measurement": "IC50", "setting": "OAT1; HEK293, probe [3H]-p-aminohippurate 1 μM, read-out: IC50", "value": "> 50", "unit": "µM"}]}]}
